Inconclusive results and toxic doses are left out.
Tested on: CD2F1 mice, L1210 leukemia ip, survival T/C
Assay: NCI In Vivo Anticancer Drug Screen. Data for tumor model L1210 Leukemia (intraperitoneal) in CD2F1 (CDF1) mice
Conditions: endpoint: mean survival time, higher = longer survival
Procedure, shortened: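 Antitumor effect is scored in animals hosting a serially transplanted tumor. Values compare compound-dosed animals against vehicle-only controls as a simple quotient.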

[1] = dose: 100.0 mg/kg/injection, schedule: Q04DX003 (ip), vehicle: saline
[2] = dose: 200.0 mg/kg/injection, schedule: Q04DX003 (ip), vehicle: saline
[3] = dose: 400.0 mg/kg/injection, schedule: Q04DX003 (ip), vehicle: saline
[4] = dose: 50.0 mg/kg/injection, schedule: Q01DX009 (ip), vehicle: saline with Tween-80
[5] = dose: 100.0 mg/kg/injection, schedule: Q01DX009 (ip), vehicle: saline with Tween-80
[6] = dose: 100.0 mg/kg/injection, schedule: Q04DX003 (ip), vehicle: saline with Tween-80
[7] = dose: 200.0 mg/kg/injection, schedule: Q01DX009 (ip), vehicle: saline with Tween-80
[8] = dose: 200.0 mg/kg/injection, schedule: Q04DX003 (ip), vehicle: saline with Tween-80
[9] = dose: 400.0 mg/kg/injection, schedule: Q04DX003 (ip), vehicle: saline with Tween-80
[10] = dose: 100.0 mg/kg/injection, schedule: Q01DX001 (ip), vehicle: saline
[11] = dose: 200.0 mg/kg/injection, schedule: Q01DX001 (ip), vehicle: saline
[12] = dose: 100.0 mg/kg/injection, schedule: Q01DX001 (ip), vehicle: saline with Tween-80
[13] = dose: 400.0 mg/kg/injection, schedule: Q01DX001 (ip), vehicle: saline with Tween-80
[14] = dose: 200.0 mg/kg/injection, schedule: Q01DX001 (ip), vehicle: saline with Tween-80

CCOC(=O)C(OC(=O)c1ccccc1)c1ccccc1 (stereo unspecified)
T/C (dose: 100.0 mg/kg/injection, schedule: Q01DX009 (ip), vehicle: other): 98 % of control | T/C (dose: 200.0 mg/kg/injection, schedule: Q01DX009 (ip), vehicle: other): 96 % of control | T/C (dose: 400.0 mg/kg/injection, schedule: Q01DX009 (ip), vehicle: other): 96 % of control

C1CN2CCN1CC2.O.[Cl][Pt][Cl]
T/C (dose: 12.5 mg/kg/injection, schedule: Q01DX005 (ip), vehicle: water): 97 % of control | T/C (dose: 25.0 mg/kg/injection, schedule: Q01DX005 (ip), vehicle: water): 92 % of control | T/C (dose: 50.0 mg/kg/injection, schedule: Q01DX005 (ip), vehicle: water): 92 % of control | T/C (dose: 50.0 mg/kg/injection, schedule: Q04DX003 (ip), vehicle: water): 102 % of control | T/C (dose: 100.0 mg/kg/injection, schedule: Q01DX005 (ip), vehicle: water): 96 % of control | T/C (dose: 100.0 mg/kg/injection, schedule: Q04DX003 (ip), vehicle: water): 94 % of control | T/C (dose: 200.0 mg/kg/injection, schedule: Q01DX005 (ip), vehicle: water): 96 % of control | T/C (dose: 200.0 mg/kg/injection, schedule: Q04DX003 (ip), vehicle: water): 95 % of control | T/C (dose: 400.0 mg/kg/injection, schedule: Q04DX003 (ip), vehicle: water): 107 % of control

Cc1ccccc1NCS(=O)(=O)O
T/C [1]: 101 % of control | T/C [2]: 104 % of control | T/C [3]: 98 % of control

O=C(C[n+]1cc2ccccc2cc1/C=N/O)c1ccccc1
T/C [4]: 98 % of control | T/C [5]: 93 % of control | T/C [6]: 95 % of control | T/C [7]: 96 % of control | T/C [8]: 95 % of control

c1cc[n+]2c(c1)-c1cccc[n+]1CCCC2
T/C (dose: 75.0 mg/kg/injection, schedule: Q01DX009 (ip), vehicle: saline): 108 % of control | T/C (dose: 75.0 mg/kg/injection, schedule: Q04DX003 (ip), vehicle: saline): 98 % of control | T/C (dose: 150.0 mg/kg/injection, schedule: Q01DX009 (ip), vehicle: saline): 100 % of control | T/C (dose: 150.0 mg/kg/injection, schedule: Q04DX003 (ip), vehicle: saline): 93 % of control | T/C (dose: 300.0 mg/kg/injection, schedule: Q04DX003 (ip), vehicle: saline): 96 % of control

CC(CC(C)(C)C)O[Si](C)C1(C)CCCCC1 (stereo unspecified)
T/C [6]: 102 % of control | T/C [8]: 112 % of control | T/C [9]: 106 % of control

Cc1ccc(C(C)C)c(O)c1O
T/C (dose: 25.0 mg/kg/injection, schedule: Q01DX009 (ip), vehicle: saline with Tween-80): 94 % of control | T/C (dose: 25.0 mg/kg/injection, schedule: Q04DX003 (ip), vehicle: saline with Tween-80): 96 % of control | T/C [4]: 103 % of control | T/C (dose: 50.0 mg/kg/injection, schedule: Q04DX003 (ip), vehicle: saline with Tween-80): 98 % of control | T/C [5]: 97 % of control | T/C [6]: 94 % of control

CC(C)CNC(=O)c1ccc(N=NN(C)Cc2ccncc2)cc1
T/C [4]: 104 % of control | T/C [5]: 122 % of control | T/C [6]: 105 % of control | T/C [8]: 117 % of control

Cc1ccc(N=NN(C)C)cc1
T/C (dose: 18.75 mg/kg/injection, schedule: Q01DX009 (ip), vehicle: Klucel (hydroxypropylcellulose) (HPC)): 118 % of control | T/C (dose: 75.0 mg/kg/injection, schedule: Q01DX009 (ip), vehicle: Klucel (hydroxypropylcellulose) (HPC)): 152 % of control

CN1C(=O)C(C)(C)C(=O)C1(C)C
T/C (dose: 25.0 mg/kg/injection, schedule: Q01DX001 (ip), vehicle: saline): 103 % of control | T/C (dose: 50.0 mg/kg/injection, schedule: Q01DX001 (ip), vehicle: saline): 104 % of control | T/C [10]: 103 % of control

CC(=O)O.CC(=O)O.O.[Fe]
T/C [10]: 98 % of control | T/C [11]: 96 % of control | T/C (dose: 400.0 mg/kg/injection, schedule: Q01DX001 (ip), vehicle: saline): 100 % of control

CCOC(=O)CC(=O)c1[nH]c(C)c(C(=O)OCC)c1C
T/C [6]: 101 % of control | T/C [8]: 103 % of control | T/C [9]: 101 % of control

CC(=O)Nc1ccc(NC(=O)Nc2ccc(C)c([N+](=O)[O-])c2)cc1
T/C [4]: 98 % of control | T/C [5]: 98 % of control | T/C [7]: 98 % of control

CC(=O)OC/C(=N\Nc1ccc([N+](=O)[O-])cc1[N+](=O)[O-])c1ccccc1
T/C (dose: 3.13 mg/kg/injection, schedule: Q01DX001 (ip), vehicle: saline with Tween-80): 107 % of control | T/C (dose: 6.25 mg/kg/injection, schedule: Q01DX001 (ip), vehicle: saline with Tween-80): 94 % of control | T/C [12]: 86 % of control | T/C [13]: 90 % of control

CC(=O)C(C(C)=O)C1C=CCC1 (stereo unspecified)
T/C [5]: 107 % of control | T/C [7]: 104 % of control | T/C (dose: 400.0 mg/kg/injection, schedule: Q01DX009 (ip), vehicle: saline with Tween-80): 101 % of control

CC(=O)OCC1OC(OC(C)=O)C(NC(=O)C[NH-])C(OC(C)=O)C1OC(C)=O.CC(=O)OCC1OC(OC(C)=O)C(NC(=O)C[NH-])C(OC(C)=O)C1OC(C)=O.[Cl][Pt+2][Cl] (stereo unspecified)
T/C (dose: 12.5 mg/kg/injection, schedule: Q04DX003 (ip), vehicle: saline): 96 % of control | T/C (dose: 25.0 mg/kg/injection, schedule: Q04DX003 (ip), vehicle: saline): 98 % of control | T/C (dose: 50.0 mg/kg/injection, schedule: Q04DX003 (ip), vehicle: saline): 98 % of control | T/C [1]: 106 % of control | T/C [2]: 98 % of control

CCCCCCCCCCCCCCCCCC[n+]1cccc(C(=O)c2ccccc2)c1
T/C (dose: 9.38 mg/kg/injection, schedule: Q01DX001 (ip), vehicle: other): 100 % of control | T/C (dose: 18.75 mg/kg/injection, schedule: Q01DX001 (ip), vehicle: other): 108 % of control

Cc1[nH]nc(C(N)=O)c1N=NN1CCOCC1
T/C (dose: 75.0 mg/kg/injection, schedule: Q01DX001 (ip), vehicle: other): 101 % of control | T/C (dose: 150.0 mg/kg/injection, schedule: Q01DX001 (ip), vehicle: other): 106 % of control | T/C (dose: 300.0 mg/kg/injection, schedule: Q01DX001 (ip), vehicle: other): 109 % of control

CC(=O)OC1CCC2(C)C(=CCC3C2CCC2(C)C(C(=O)CC(O)(C(F)(F)F)C(F)(F)F)CCC32)C1 (stereo unspecified)
T/C (dose: 12.5 mg/kg/injection, schedule: Q04DX002 (ip), vehicle: saline with Tween-80): 98 % of control | T/C (dose: 25.0 mg/kg/injection, schedule: Q04DX002 (ip), vehicle: saline with Tween-80): 90 % of control | T/C (dose: 50.0 mg/kg/injection, schedule: Q04DX002 (ip), vehicle: saline with Tween-80): 94 % of control

C=C1CCCCC1C(C(=O)O)(c1ccccc1)c1ccccc1 (stereo unspecified)
T/C [6]: 102 % of control | T/C [8]: 102 % of control | T/C [9]: 100 % of control

O=C(CCl)n1nc(Cl)c2ccc([N+](=O)[O-])cc21
T/C [10]: 98 % of control | T/C [11]: 98 % of control

COc1cc(C(=O)N2CC3CCC(CC3)C2)cc(OC)c1OC
T/C [6]: 93 % of control | T/C [8]: 96 % of control | T/C [9]: 96 % of control

Nc1ccc(S(=O)(=O)F)c(Cl)c1
T/C [5]: 97 % of control | T/C [1]: 95 % of control | T/C [7]: 100 % of control | T/C [2]: 101 % of control | T/C [3]: 95 % of control

O=C(O)CNCC(C(=O)O)C(=O)O
T/C (dose: 25.0 mg/kg/injection, schedule: Q04DX002 (ip), vehicle: saline): 96 % of control | T/C (dose: 50.0 mg/kg/injection, schedule: Q04DX002 (ip), vehicle: saline): 90 % of control | T/C (dose: 100.0 mg/kg/injection, schedule: Q04DX002 (ip), vehicle: saline): 90 % of control

Cc1n[nH]c2ccc([N+](=O)[O-])cc2c1=O
T/C [5]: 89 % of control

O=c1cc(NCCCCOc2ccccc2)[nH]c(=O)[nH]1
T/C [12]: 96 % of control | T/C [14]: 93 % of control | T/C [13]: 96 % of control

C1CSC(CC2SCCCS2)SC1
T/C (dose: 50.0 mg/kg/injection, schedule: Q01DX001 (ip), vehicle: saline with Tween-80): 97 % of control | T/C [12]: 94 % of control | T/C [14]: 96 % of control

CN(CCCOS(C)(=O)=O)CCCN(C)CCCOS(C)(=O)=O
T/C (dose: 10.0 mg/kg/injection, schedule: Q01DX001 (ip), vehicle: saline): 115 % of control | T/C (dose: 20.0 mg/kg/injection, schedule: Q01DX001 (ip), vehicle: saline): 107 % of control | T/C (dose: 40.0 mg/kg/injection, schedule: Q01DX001 (ip), vehicle: saline): 115 % of control | T/C (dose: 60.0 mg/kg/injection, schedule: Q01DX001 (ip), vehicle: saline): 124 % of control | T/C (dose: 80.0 mg/kg/injection, schedule: Q01DX001 (ip), vehicle: saline): 115 % of control | T/C [10]: 117 % of control

Source: PubChem BioAssay AID256 (DTP/NCI, 2004)
